Source: patent US11180504B2 (ORCHID PHARMA LTD., priority 2016, dated 2021)
In brackets after ≈: the same amount, converted by molar mass. Like-named read-outs stand apart in the source and are kept apart here.

Assays:
[1] = tested on: methicillin-sensitive Staphylococcus aureus; test: MIC by broth micro-dilution (CLSI), methicillin-sensitive S. aureus; assay type: cell-based; details: MSSA S. aureus ATCC29213
[2] = tested on: carbapenem sensitive Escherichia coli; test: MIC by broth micro-dilution (CLSI), carbapenem sensitive E. coli; assay type: cell-based
[3] = tested on: carbapenemase producing K. pneumoniae; test: MIC by broth micro-dilution (CLSI), carbapenemase producing K. pneumoniae; assay type: cell-based, Klebsiella pneumoniae
[4] = tested on: carbapenem sensitive Pseudomonas aeruginosa; test: MIC by broth micro-dilution (CLSI), carbapenem sensitive P. aeruginosa; assay type: cell-based
[5] = Staphylococcus aureus, ATCC 29213 / MSSA, read-out: MIC
[6] = Escherichia coli, ATCC25922, ESBL −ve E. coli ATCC25922, read-out: MIC
[7] = Klebsiella pneumoniae, ATCCBAA1705, KPC-2 K. pneumoniae ATCC BAA-1705, read-out: MIC
[8] = Pseudomonas aeruginosa, ATCC27853, Meropenem susceptible P. aeruginosa ATCC27853, read-out: MIC

Structure (SMILES) | MIC [1, 5] [µg/mL] | MIC [2, 6] [µg/mL] | MIC [3, 7] [µg/mL] | MIC [4, 8] [µg/mL] | MIC [1] [µg/mL] | MIC ([2]; ESBL −ve E. coli ATCC25922) [µg/mL] | MIC ([3]; KPC-2 K. pneumoniae ATCC BAA-1705) [µg/mL] | MIC ([4]; Meropenem susceptible P. aeruginosa ATCC27853) [µg/mL]
CCOC(=O)c1nnnn1CC(=O)N[C@H](C)[C@H]1C(=O)N2C(C(=O)O)=C(S[C@@H]3CN[C@H](C(=O)N(C)C)C3)[C@H](C)[C@H]12 [Example 338, (4R,5S,6R)-3-((3S,5S)-5-(dimethylcarbamoyl)pyrrolidin-3-ylthio)-6-((R) - 1-(2-(5-(ethoxycarbonyl) - 1H-tetrazol-1-yl)acetamido)ethyl)-4-methyl-7-oxo-1-azabicyclo[3.2.0]hept-2-ene-2-carboxylic acid] | 8 (≈ 14.2 µM) | 2 (≈ 3.54 µM) | 32 (≈ 56.7 µM) | 128 (≈ 227 µM) |  |  |  | 
C[C@@H](NC(=O)Cn1cnnn1)[C@H]1C(=O)N2C(C(=O)O)=C(S[C@@H]3CN[C@H](C(=O)Nc4ccncc4)C3)[C@H](C)[C@H]12 [Example 402, (4R,5S,6R)-6-((R)-1-(2-(1H-tetrazol-1-yl)acetamido)ethyl)-4-methyl-7-oxo-3-((3S,5S)-5-(pyridin-4-ylcarbamoyl)pyrrolidin-3-ylthio)-1-azabicyclo[3.2.0]hept-2-ene-2-carboxylic acid] | 1 (≈ 1.85 µM) | 0.06 (≈ 0.111 µM) | 1 (≈ 1.85 µM) | 32 (≈ 59.1 µM) |  |  |  | 
C[C@@H](NC(=O)Cn1nnnc1C1CC1)[C@H]1C(=O)N2C(C(=O)O)=C(S[C@@H]3CN[C@H](C(=O)N(C)C)C3)[C@H](C)[C@H]12 [Example 378] | 4 (≈ 7.51 µM) | 0.25 (≈ 0.469 µM) | 2 (≈ 3.75 µM) | 128 (≈ 240 µM) |  |  |  | 
C[C@@H](NC(=O)Cn1cnnn1)[C@H]1C(=O)N2C(C(=O)O)=C(SCCN)[C@H](C)[C@H]12 [Example 415, (4R,5S,6R)-6-((R)-1-(2-(1H-tetrazol-1-yl)acetamido)ethyl)-3-(2-aminoethylthio)-4-methyl-7-oxo-1-azabicyclo[3.2.0]hept-2-ene-2-carboxylic acid] | 4 (≈ 10.1 µM) | 2 (≈ 5.06 µM) | 1 (≈ 2.53 µM) | 16 (≈ 40.5 µM) |  |  |  | 
Cc1nnnn1CC(=O)N[C@H](C)[C@H]1C(=O)N2C(C(=O)O)=C(S[C@@H]3CN[C@H](C(=O)N(C)C)C3)[C@H](C)[C@H]12 [Example 330, (4R,5S,6R)-3-((3S,5S)-5-(dimethylcarbamoyl)pyrrolidin-3-ylthio)-4-methyl-6-((R) - 1-(2-(5-methyl-1H-tetrazol-1-yl)acetamido)ethyl)-7-oxo-1-azabicyclo[3.2.0]hept-2-ene-2-carboxylic acid] | 8 (≈ 15.8 µM) | 0.25 (≈ 0.493 µM) | 2 (≈ 3.95 µM) | 64 (≈ 126 µM) |  |  |  | 
C[C@@H](NC(=O)Cn1cnnn1)[C@H]1C(=O)N2C(C(=O)O)=C(S[C@@H]3CN[C@H](C(=O)N4CCC(CNCCN)CC4)C3)[C@H](C)[C@H]12 [Example 443, (4R,5S,6R)-6-((R)-1-(2-(1H-tetrazol-1-yl)acetamido)ethyl)-3-((3S,5S)-5-(4-((2-aminoethylamino)methyl)piperidine-1-carbonyl)pyrrolidin-3-ylthio)-4-methyl-7-oxo-1-azabicyclo[3.2.0]hept-2-ene-2-carboxylic acid] | 4 (≈ 6.61 µM) | 0.5 (≈ 0.827 µM) | 2 (≈ 3.31 µM) | 1 (≈ 1.65 µM) |  |  |  | 
C[C@@H](NC(=O)Cn1cnnn1)[C@H]1C(=O)N2C(C(=O)O)=C(S[C@@H]3CN[C@H](C(=O)N4CC5C(N)C5C4)C3)[C@H](C)[C@H]12 (stereo partly drawn) [Example 333, (4R,5S,6R)-6-((R) - 1-(2-(1H-tetrazol-1-yl)acetamido)ethyl)-3-((3S,5S)-5-(6-amino-3-azabicyclo[3.1.0]hexane-3-carbonyl)pyrrolidin-3-ylthin)-4-methyl-7-oxo-1-azabicyclo[3.2.0]hept-2-ene-2-carboxylic acid] | 8 (≈ 14.7 µM) | 0.5 (≈ 0.916 µM) | 4 (≈ 7.33 µM) | 4 (≈ 7.33 µM) |  |  |  | 
C[C@@H](NC(=O)Cn1cnnn1)[C@H]1C(=O)N2C(C(=O)O)=C(S[C@@H]3CN[C@H](C(=O)N4C[C@@H](CO)[C@H](N)C4)C3)[C@H](C)[C@H]12 [Example 584, (4R,5S,6R)-6-((R)-1-(2-(1H-tetrazol-1-yl)acetamido)ethyl)-3-((3S,5S)-5-((3S,4R)-3-amino-4-(hydroxymethyl)pyrrolidine-1-carbonyl)pyrrolidin-3-ylthio)-4-methyl-7-oxo-1-azabicyclo[3.2.0]hept-2-ene-2-carboxylic acid] | 2 (≈ 3.55 µM) | 0.25 (≈ 0.444 µM) | 1 (≈ 1.77 µM) | 1 (≈ 1.77 µM) |  |  |  | 
C[C@@H](NC(=O)Cn1cnnn1)[C@H]1C(=O)N2C(C(=O)O)=C(S[C@@H]3CN[C@H](C(=O)N4CCC(N5CC(N)C5)CC4)C3)[C@H](C)[C@H]12 [Example 342, (4R,5S,6R)-6-((R) - 1-(2-(1H-tetrazol-1-yl)acetamido)ethyl)-3-((3S,5S)-5-(4-(3-aminoazetidin-1-yl)piperidine-1-carbonyl)pyrrolidin-3-ylthino)-4-methyl-7-oxo-1-azabicyclo[3.2.0]hept-2-ene-2-carboxylic acid] | 16 (≈ 26.5 µM) | 2 (≈ 3.32 µM) | 8 (≈ 13.3 µM) | 8 (≈ 13.3 µM) |  |  |  | 
C[C@@H](NC(=O)Cn1cnnn1)[C@H]1C(=O)N2C(C(=O)O)=C(S[C@@H]3CN[C@H](C(=O)N4CCC(Nc5ncccn5)CC4)C3)[C@H](C)[C@H]12 [Example 370, (4R,5S,6R)-6-((R)-1-(2-(1H-tetrazol-1-yl)acetamido)ethyl)-4-methyl-7-oxo-3-((3S,5S)-5-(4-(pyrimidin-2-ylamino)piperidine-1-carbonyl)pyrrolidin-3-ylthio)-1-azabicyclo[3.2.0]hept-2-ene-2-carboxylic acid] | 8 (≈ 12.8 µM) | 4 (≈ 6.39 µM) | 64 (≈ 102 µM) | > 128 |  |  |  | 
CNCC(=O)N[C@H](C)[C@H]1C(=O)N2C(C(=O)O)=C(S[C@@H]3CN[C@H](C(=O)N4C[C@@H](N)[C@H](O)C4)C3)[C@H](C)[C@H]12 [Example 297] | 16 (≈ 31.3 µM) | 1 (≈ 1.96 µM) | 2 (≈ 3.92 µM) | 4 (≈ 7.83 µM) |  |  |  | 
CNCC(=O)N[C@H](C)[C@H]1C(=O)N2C(C(=O)O)=C(S[C@@H]3CN[C@H](C(=O)N4CCC(N)(Cc5ccccc5)CC4)C3)[C@H](C)[C@H]12 [Example 275] | 64 (≈ 107 µM) | 16 (≈ 26.7 µM) | 64 (≈ 107 µM) | > 128 |  |  |  | 
C[C@@H](NC(=O)Cn1cnnn1)[C@H]1C(=O)N2C(C(=O)O)=C(S[C@@H]3CN[C@H](C(=O)N4CC[C@@H](N)[C@H](O)C4)C3)[C@H](C)[C@H]12 [Example 553, (4R,5S,6R)-6-((R)-1-(2-(1H-tetrazol-1-yl)acetamido)ethyl)-3-((3S,5S)-5-((3R,4R)-4-amino-3-hydroxypiperidine-1-carbonyl)pyrrolidin-3-ylthio)-4-methyl-7-oxo-1-azabicyclo[3.2.0]hept-2-ene-2-carboxylic acid] | 2 (≈ 3.55 µM) | 0.25 (≈ 0.444 µM) | 1 (≈ 1.77 µM) | 2 (≈ 3.55 µM) |  |  |  | 
C[C@@H](NC(=O)C(N)C(F)(F)F)[C@H]1C(=O)N2C(C(=O)O)=C(S[C@@H]3CN[C@H](C(=O)N(C)C)C3)[C@H](C)[C@H]12 (stereo partly drawn) [Example 389, (4R,5S,6R)-6-((1R)-(2-amino-3,3,3-trifluoropropanamido)ethyl)-3-((3S,5S)-5-(dimethylcarbamoyl)pyrrolidin-3-ylthio)-4-methyl-7-oxo-1-azabicyclo[3.2.0]hept-2-ene-2-carboxylic acid] |  |  |  |  | 8 (≈ 15.8 µM) | 1 (≈ 1.97 µM) | 4 (≈ 7.88 µM) | >128
